{"source": "paper PMC10610214", "about": "(Pharmaceuticals, 2023)", "key": {"BV2 cells": {"tested_on": "BV2 cells", "assay": "Cytotoxicity in BV2 cells (MTT)", "type": "cell-based", "method": "The cytotoxicity and neuroprotective effects of the compounds on PC12 cells were evaluated by MTT assay. PC12 cells were seeded into a 96-well plate at a density of 5.0 × 10^3 cells per well. After the cells were incubated overnight, the old medium was discarded. The cells were incubated for another 24 h with fresh medium containing compounds at a concentration of 30 or 50 μM. A total of 20 μL of MTT solution (5 mg/mL, Sigma-Aldrich, Shanghai, China) was then added per well, and the cells were incubated for an additional 4 h. Afterwards, the supernatant was removed and 150 μL of DMSO was added to solubilize formazan crystals. The 96-well plate was placed on the shaker for 10–15 min, and then the absorbance at 492 nm was measured by a microplate reader.\nThe cytotoxicity of compounds on BV2 cells were evaluated by MTT assay and similar to those described in Section 2.5. The NO concentrations in medium were determined using Griess Reagent assay (Beyotime) in accordance with a previously reported method. Nitrite is reduced to nitrogen oxide using Griess Reagent I. Nitrogen oxide then reacts with Griess Reagent II forming a stable product that can be detected by its absorbance at […]. The two-step assay is simple, fast, and can detect nitrite levels as low as 1 nmol/well. BV2 cells were seeded into a 48-well plate at a density of 6.0 × 10^4 cells per well. […]"}, "DPPH radical scavenging": {"assay": "DPPH radical scavenging", "type": "physicochemical", "details": "vs no-compound group", "method": "DPPH is a commercially available stable organic nitrogen radical with maximum UV absorption at 515 nm. After reduction, the color of the solution fades (absorbance decreases). Therefore, this method was used to evaluate the antioxidant capacity of the compounds. In short, 50 μL of DPPH (140 μM) and 50 μL of different concentrations (10, 100, and 1000 μM) of compound 4h were added together in a 96-well plate and then incubated in the dark at 37 °C for 2 h. The absorbance was measured at 515 nm through the multifunctional microplate reader. The scavenging rate (SR) of DPPH radicals was calculated by the following formula: SR = (1 − Ac/A0) × 100%, where “Ac” is the absorbance of DPPH and the compound solution incubating, and “A0” is the absorbance of the DPPH radical-ethanol solution alone. The experimental results are expressed as the average of three tests."}, "AChE": {"target": "T1, AChE (Electrophorus electricus, UniProt O42275)", "T1 construct": "AChE (from electric eel); purchased Sigma Chemical Company (St. Louis, MO, USA)", "T1 sequence (O42275 24-633)": "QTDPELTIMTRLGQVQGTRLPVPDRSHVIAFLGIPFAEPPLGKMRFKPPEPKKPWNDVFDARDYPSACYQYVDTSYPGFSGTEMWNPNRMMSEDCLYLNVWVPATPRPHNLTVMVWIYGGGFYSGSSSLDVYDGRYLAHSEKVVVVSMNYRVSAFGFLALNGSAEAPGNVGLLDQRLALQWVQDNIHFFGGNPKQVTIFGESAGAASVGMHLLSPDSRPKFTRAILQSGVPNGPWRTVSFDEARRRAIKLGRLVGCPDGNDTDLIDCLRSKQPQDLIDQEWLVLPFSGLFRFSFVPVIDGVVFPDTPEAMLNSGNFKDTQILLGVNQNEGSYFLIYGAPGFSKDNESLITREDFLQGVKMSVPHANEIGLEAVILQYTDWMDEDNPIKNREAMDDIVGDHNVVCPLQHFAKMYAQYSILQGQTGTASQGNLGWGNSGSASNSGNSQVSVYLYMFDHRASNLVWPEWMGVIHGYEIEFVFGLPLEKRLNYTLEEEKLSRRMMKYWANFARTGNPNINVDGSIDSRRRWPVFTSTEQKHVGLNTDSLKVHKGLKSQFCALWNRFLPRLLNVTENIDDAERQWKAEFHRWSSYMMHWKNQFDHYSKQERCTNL", "assay": "Kinetic study of AChE inhibition (Lineweaver–Burk)", "type": "biochemical", "method": "The specific steps are similar to those described in Section 4.3 for the enzyme inhibition assay. In brief, 100 μL of different concentrations of 4h (0, 0.075, 0.15, and 0.3 μM)/4h (0, 3, 6, and 12 μM) and 100 μL of different concentrations of AChE/BuChE (1, 0.5, 0.25, 0.125, and 0.0625 U/mL) were added into 48-well plates and then co-incubated at 37 °C for 30 min. After the end of incubation, 100 μL of ATCI/BTCI (0.35 mM), 100 μL of PB solution, and 100 μL DTNB (0.35 mM) were added, and then changes in absorbance were measured at different times at 412 nm by multifunctional microplate reader, and the catalytic reaction rate of AChE/BuChE was determined. All concentrations are final. With the enzyme reaction rate V as the ordinate and AChE/BuChE concentration as the abscissa, the curve was drawn to determine the reversibility of the compound to AChE/BuChE.\nIn order to determination of inhibition types and the constant of AChE/BuChE, the concentration of AChE/BuChE (0.5 U/mL) in the reaction system was fixed. Five different substrate concentrations and four different concentrations of test compound 4h were used to measure the absorbance changes at different times at 412 nm. The reciprocal of the enzymatic reaction rate (1/V) was taken as the ordinate, and the reciprocal of the substrate ATCI/BTCI concentration (1/S) was taken as the abscissa.\n[…]. […]"}, "BuChE": {"target": "T2, BuChE (Equus caballus, UniProt P81908)", "T2 construct": "BuChE (from equine serum); purchased Sigma Chemical Company (St. Louis, MO, USA); host or cells: equine serum", "T2 sequence (P81908 whole entry)": "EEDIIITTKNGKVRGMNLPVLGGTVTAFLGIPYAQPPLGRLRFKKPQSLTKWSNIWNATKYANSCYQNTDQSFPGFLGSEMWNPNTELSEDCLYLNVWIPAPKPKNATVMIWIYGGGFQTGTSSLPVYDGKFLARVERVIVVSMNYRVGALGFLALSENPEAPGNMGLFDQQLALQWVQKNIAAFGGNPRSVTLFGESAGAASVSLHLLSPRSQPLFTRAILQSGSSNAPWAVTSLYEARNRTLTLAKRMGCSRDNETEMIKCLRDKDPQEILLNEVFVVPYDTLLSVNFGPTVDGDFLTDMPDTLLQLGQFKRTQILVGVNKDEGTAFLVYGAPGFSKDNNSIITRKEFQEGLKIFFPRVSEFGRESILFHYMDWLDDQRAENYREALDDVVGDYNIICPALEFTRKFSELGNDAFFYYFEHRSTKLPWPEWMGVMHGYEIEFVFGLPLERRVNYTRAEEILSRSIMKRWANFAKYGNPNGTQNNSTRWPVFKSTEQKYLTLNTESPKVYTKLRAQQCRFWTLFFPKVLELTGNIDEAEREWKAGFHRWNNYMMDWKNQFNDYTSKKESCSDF", "assay": "Reversibility of BuChE inhibition, dilution method", "type": "biochemical", "details": "for BuChE activity after dilution (reversibility): control 100", "method": "The activities of the diluted residual enzymes were measured by Ellman’s modified method.\nReversibility studies were performed using a modified Ellman’s dilution method to measure the activity of the diluted residual enzyme. The AChE/BuChE (0.5 U/mL), ATCI/BTCI (0.01 M) and DTNB (0.01 M) were diluted with phosphate buffer pH = 7.4. […] At the end of incubation, 20 μL of DTNB solution was added to them. […] All the measured results are expressed as the mean ± SEM of the three independent experiments."}, "Aβ1-42": {"target": "Aβ1-42 (Homo sapiens, UniProt P05067)", "sequence (P05067 672-713 limits assumed)": "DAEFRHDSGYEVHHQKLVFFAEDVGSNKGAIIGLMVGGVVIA", "assay": "Self-induced Aβ1-42 aggregation, thioflavin T fluorescence", "type": "biochemical", "set-up": "final concentrations of 20 μM of Aβ1-42 and 100 μM of test compound; purchased Beyotime Institute of Biotechnology", "details": "100 μM inhibitor; ThT; 48 h; read-out: Inhibition of Self-Induced Aβ Aggregation (%)", "method": "The inhibitory effect of compounds on Aβ42 was determined by Thioflavin T (ThT) fluorescence assay. In short, the dilution of Aβ42 solution (Beyotime Biotechnology, Hang Zhou, China) and test compounds was carried out with phosphate buffer (50 mM, pH 7.4) to obtain final concentrations of 20 μM of Aβ1-42 and 100 μM of test compound, such as curcumin (20 μM). The mixture was incubated in 96-well plates at room temperature for 48 h in the dark. When the incubation was complete, the samples were diluted to 200 µL (final volume) with glycine–NaOH buffer (50 mM, pH 8.0) containing 5 μM ThT."}}, "note": "Several values for one entry are separate records, joined by “and”; a condition that tells them apart may be missing. Identical values can stand only once."}
{"smiles": "O=C1c2cc(NS(=O)(=O)c3ccccc3F)ccc2-n2c1nc1ccccc1c2=O", "note": "[4h]", "values": [{"measurement": "Cell Viability (% of Control)", "setting": "BV2 cells; 30 μM", "result": "101.23 ± 1.82 % of control"}, {"measurement": "Cell Viability (% of Control)", "setting": "BV2 cells; 50 μM", "result": "97.44 ± 1.36 % of control"}, {"measurement": "Concentration of DPPH (%)", "setting": "DPPH radical scavenging; 10 μM compound", "result": "84.76 ± 4.21% and 84.76%"}, {"measurement": "Concentration of DPPH (%)", "setting": "DPPH radical scavenging; 100 μM compound", "result": "74.6 ± 2.51", "unit": "%"}, {"measurement": "Concentration of DPPH (%)", "setting": "DPPH radical scavenging; 1000 μM compound", "result": "36.51 ± 2.78% and 36.51%"}, {"measurement": "AChE inhibition type", "setting": "AChE; Lineweaver–Burk double-reciprocal plot", "result": "mixed-type inhibition"}, {"measurement": "Ki", "setting": "AChE; Lineweaver–Burk secondary plot", "result": 83.1, "unit": "nM"}, {"measurement": "Reversibility of BuChE inhibition", "setting": "BuChE; dilution method", "result": "reversible inhibitor"}, {"measurement": "BuChE activity after dilution (reversibility)", "setting": "BuChE; final inhibitor 0.1 × IC50 after 100-fold dilution", "result": "92.2 ± 0.52"}, {"measurement": "BuChE activity after dilution (reversibility)", "setting": "BuChE; final inhibitor 1 × IC50 after 100-fold dilution", "result": "84.9 ± 1.2"}, {"measurement": "inhibition at 100 µM", "setting": "Aβ1-42", "result": "63.2 ± 2.33", "unit": "%"}]}
